# From paper PMC10218257, “Ionic Levothyroxine Formulations: Synthesis, Bioavailability, and Cytotoxicity Studies” (International Journal of Molecular Sciences, 2023)
# Where two headings read alike, the source gives them in different places.
# Columns and labels:
# [1] = Thermogravimetric analysis (TGA); format: physicochemical; conditions: 5 °C min^−1, argon
# Description: Thermogravimetric analyses were performed over a temperature range from room temperature to 500 °C in a thermogravimetric analyzer from Setaram Labsys EVO (France) with a weighing precision of ±0.01%. Each run was conducted at a heating rate of 5 °C min^−1, under a highly pure argon atmosphere purged at 50 mL min^−1, with a mass sample between 8 and 10 mg.
# [2] = Permeability assays, Franz-type diffusion cell; design: Kd (partition coefficient): unit not given beside the values
# From the text: In this context, a polyethersulphone (PES-U) membrane was selected for the determination of these two parameters. The diffusion coefficient is associated with the amount of API diffused with time. Therefore, the increase in the diffusion coefficient is proportional to the speed of the drug's diffusion through the membrane. Another aspect to consider is that the solubility of the drug is proportional to the driving force. […] The chosen membrane was polyethersulphone (PES-U) with 150 μm thickness and 0.45 μm pore size (Sartorius Stedim Biotech, Göttingen, Germany), which was placed between the two compartments and held with a stainless-steel clamp. The receptor compartment was filled with PBS solution, and air bubbles were removed. […] The determination of the API diffused was performed by HPLC. The assays were performed with three replicates. […] The cumulative mass of drug diffused to the receptor compartment was determined taking into consideration the replacement of aliquots with fresh medium and the dilution derived from the addition of fresh buffer. […] According to a derived solution of Fick's law of diffusion, it is possible to determine the diffusion coefficient, D, of the API through the membrane. […] Cf and Ci are the final and initial concentrations in the receptor compartment, and Ct is the concentration in the receptor compartment at time t.
# [3] = Solubility assays in water, PBS and serum; format: physicochemical
# Description: All the assays were carried out in triplicate. The average and standard deviation were calculated for the three replicates.
# L929 cells = assay: Cell viability assay (MTS, CellTiter 96); format: cell-based; conditions: 24 h exposure, 50 and 75 ppm
# Description: The biological effect of compounds was evaluated on the L929 cell line (DSMZ—German Collection of Microorganisms and Cell Culture GmbH). […] Cells only incubated with complete media were used as negative control and DMSO was chosen […]. […] The amount of formazan product was measured in a microplate reader (VICTOR Nivo TM, PerkinElmer, Waltham, MA, USA) at 490 nm, as absorbance is directly proportional to the number of viable cells in culture. Cell viability was expressed as the percentage of cells exposed to extracts vs. controls. Statistical analysis was performed using GraphPad Prism 7.00 software. A two-way ANOVA test was performed as well as Tukey’s multiple comparison test.
# [4] = PES-U membrane, 37 °C, 50 mg L^−1, 8-hour assay
Compound,"ΔTons, onset shifted to lower temperatures vs neat [Na][T4] [1]",Kd (partition coefficient) [2],Permeability [2],"Solubility in PBS 37 °C ([3]; PBS, 37 °C) [µg/mL]","Solubility in Serum 37 °C ([3]; serum, 37 °C) [µg/mL]","Solubility in Water 25 °C ([3]; water, 25 °C) [µg/mL]","Solubility in Water 37 °C ([3]; water, 37 °C) [µg/mL]",onset of the major weight decrease (degradation) [1] [°C],Cell viability / cytotoxicity (L929 cells),"Diffusion [2, 4]","Permeability [2, 4]"
1-(2-Hydroxyethyl)-3-Methylimidazolium Levothyroxine [[C2OHMiM][T4]],~ 30 °C,0.45,1.02 (×10^−5) cm s^−1,324 ± 4,321 ± 7,277 ± 34,379 ± 22,,,,
"NC(Cc1cc(I)c(Oc2cc(I)c(O)c(I)c2)c(I)c1)C(=O)[O-].[Na+] (centres unmarked) [[Na][T4], Levothyroxine sodium salt pentahydrate, reference compound]",,,,,,,,175,without losing their viability,0.49 (×10^−6) cm^2 s^−1,2.04 (×10^−5) cm s^−1
